What all share (assay): relative viability (nuclei count vs DMSO), 5 days (fraction); higher = more cells survive
Compound in the assay “Entinostat + Alpelisib”: Nc1ccccc1NC(=O)c1ccc(CNC(=O)OCc2cccnc2)cc1 [Entinostat] + Cc1nc(NC(=O)N2CCC[C@H]2C(N)=O)sc1-c1ccnc(C(C)(C)C(F)(F)F)c1 [Alpelisib] (partner 2 µM)
The method, boiled down:
(§1)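 Relative viability is defined as nuclei in treated wells over nuclei in vehicle wells. Duplicate plates were run and medians reported. Lung cancer cell lines in 1536-well plates were dosed by pin tool one day after seeding, with one drug or with a fixed anchor-drug dose plus five library-drug doses (not always all listed) in √10 steps, and nuclei were counted after 5 days.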

Compound in the assay “SGI-1776 + Pictilisib”: CN1CCC(CNc2ccc3ncc(-c4cccc(OC(F)(F)F)c4)n3n2)CC1 [SGI-1776] + CS(=O)(=O)N1CCN(Cc2cc3nc(-c4cccc5[nH]ncc45)nc(N4CCOCC4)c3s2)CC1 [Pictilisib] (partner 1 µM)
Put shortly:
as §1

Compound in assay [1]: C1COCCN1C2=NC(=NC3=C2OC4=C3C=CC=N4)C5=CC(=CC=C5)NC(=O)C6=CN=C(C=C6)N + Nc1nc2[nH]cc(CCc3ccc(C(=O)N[C@@H](CCC(=O)O)C(=O)O)cc3)c2c(=O)[nH]1 [Pemetrexed] (partner 0.2 µM)
The method, boiled down:
as §1

Compound in the assay “SGI-1776 + Foretinib”: CN1CCC(CNc2ccc3ncc(-c4cccc(OC(F)(F)F)c4)n3n2)CC1 [SGI-1776] + COc1cc2c(Oc3ccc(NC(=O)C4(C(=O)Nc5ccc(F)cc5)CC4)cc3F)ccnc2cc1OCCCN1CCOCC1 [Foretinib] (partner 0.25 µM)
The method, boiled down: as §1

Experimental findings from the supplement of paper PMC10307832 are described below.

In the case of NCI-H1734, the relative viability in the assay with Entinostat + Alpelisib (first compound 0.02 µM) is 0.765; with Entinostat + Alpelisib (first compound 0.06325 µM), 0.779; with Entinostat + Alpelisib (first compound 0.2 µM), 0.681; with Entinostat + Alpelisib (first compound 0.6325 µM) it was 0.737; in the assay with Entinostat + Alpelisib (first compound 2 µM) it was 0.581; with SGI-1776 + Pictilisib (first compound 0.08 µM), 0.468. In addition, the relative viability stood at 0.472 in the assay with SGI-1776 + Pictilisib (first compound 0.8 µM); 0.396 with SGI-1776 + Pictilisib (first compound 2.53 µM); 0.332 in the assay with SGI-1776 + Pictilisib (first compound 8 µM); 0.393 in assay [1] (first compound 0.02 µM); 0.427 in assay [1] (first compound 0.06325 µM); 0.36 in assay [1] (first compound 0.2 µM). Besides, the relative viability was found to be 0.351 in assay [1] (first compound 0.6325 µM); 0.33 in assay [1] (first compound 2 µM); 0.786 with SGI-1776 + Foretinib (first compound 0.08 µM); 0.913 with SGI-1776 + Foretinib (first compound 0.8 µM); 0.927 in the assay with SGI-1776 + Foretinib (first compound 2.53 µM); 0.483 with SGI-1776 + Foretinib (first compound 8 µM).
On to NCI-H1755, for which the relative viability is 0.87 with Entinostat + Alpelisib (first compound 0.02 µM); 0.921 with Entinostat + Alpelisib (first compound 0.06325 µM); 0.838 with Entinostat + Alpelisib (first compound 0.2 µM); 0.512 in the assay with Entinostat + Alpelisib (first compound 0.6325 µM); 0.353 in the assay with Entinostat + Alpelisib (first compound 2 µM); 0.386 in the assay with SGI-1776 + Pictilisib (first compound 0.08 µM). The relative viability was 0.442 in the assay with SGI-1776 + Pictilisib (first compound 0.8 µM); 0.367 in the assay with SGI-1776 + Pictilisib (first compound 2.53 µM); 0.299 with SGI-1776 + Pictilisib (first compound 8 µM); 0.447 in assay [1] (first compound 0.02 µM); 0.431 in assay [1] (first compound 0.06325 µM); 0.465 in assay [1] (first compound 0.2 µM). The relative viability was 0.388 in assay [1] (first compound 0.6325 µM); 0.362 in assay [1] (first compound 2 µM); 0.949 in the assay with SGI-1776 + Foretinib (first compound 0.08 µM); 0.931 with SGI-1776 + Foretinib (first compound 0.8 µM); 0.881 with SGI-1776 + Foretinib (first compound 2.53 µM); 0.854 with SGI-1776 + Foretinib (first compound 8 µM).
For NCI-H1793, the relative viability with Entinostat + Alpelisib (first compound 0.02 µM) was 0.584; in the assay with Entinostat + Alpelisib (first compound 0.06325 µM) it was 0.79; with Entinostat + Alpelisib (first compound 0.2 µM), 0.583; with Entinostat + Alpelisib (first compound 0.6325 µM), 0.621; with Entinostat + Alpelisib (first compound 2 µM) it was 0.388; with SGI-1776 + Pictilisib (first compound 0.08 µM) it was 0.301. Besides, the relative viability in the assay with SGI-1776 + Pictilisib (first compound 0.8 µM) is 0.256; with SGI-1776 + Pictilisib (first compound 2.53 µM), 0.399; with SGI-1776 + Pictilisib (first compound 8 µM), 0.314; in assay [1] (first compound 0.02 µM), 0.818; in assay [1] (first compound 0.06325 µM) it was 0.86; in assay [1] (first compound 0.2 µM), 0.626. The relative viability in assay [1] (first compound 0.6325 µM) is 0.621; in assay [1] (first compound 2 µM), 0.632; in the assay with SGI-1776 + Foretinib (first compound 0.08 µM) it was 0.953; with SGI-1776 + Foretinib (first compound 0.8 µM), 0.597; with SGI-1776 + Foretinib (first compound 2.53 µM) it was 0.5; in the assay with SGI-1776 + Foretinib (first compound 8 µM), 0.184.
As to NCI-H1915, the relative viability with Entinostat + Alpelisib (first compound 0.02 µM) came out at 1.07; with Entinostat + Alpelisib (first compound 0.06325 µM) it was 1.08; with Entinostat + Alpelisib (first compound 0.2 µM), 1.05; with Entinostat + Alpelisib (first compound 0.6325 µM), 0.816; in the assay with Entinostat + Alpelisib (first compound 2 µM), 0.402; in the assay with SGI-1776 + Pictilisib (first compound 0.08 µM), 0.934. The relative viability stood at 0.979 with SGI-1776 + Pictilisib (first compound 0.8 µM); 0.964 with SGI-1776 + Pictilisib (first compound 2.53 µM); 0.838 in the assay with SGI-1776 + Pictilisib (first compound 8 µM); 0.51 in assay [1] (first compound 0.02 µM); 0.515 in assay [1] (first compound 0.06325 µM); 0.471 in assay [1] (first compound 0.2 µM). The relative viability in assay [1] (first compound 0.6325 µM) was 0.476; in assay [1] (first compound 2 µM) it was 0.369; in the assay with SGI-1776 + Foretinib (first compound 0.08 µM), 1.09; with SGI-1776 + Foretinib (first compound 0.8 µM), 1.03; with SGI-1776 + Foretinib (first compound 2.53 µM), 1.11; with SGI-1776 + Foretinib (first compound 8 µM), 1.09.
For the cell line NCI-H1944, the relative viability with Entinostat + Alpelisib (first compound 0.02 µM) was found to be 0.81; with Entinostat + Alpelisib (first compound 0.06325 µM) it was 0.774; in the assay with Entinostat + Alpelisib (first compound 0.2 µM) it was 0.556; with Entinostat + Alpelisib (first compound 0.6325 µM) it was 0.422; with Entinostat + Alpelisib (first compound 2 µM), 0.273; in the assay with SGI-1776 + Pictilisib (first compound 0.08 µM), 0.355. Also, the relative viability with SGI-1776 + Pictilisib (first compound 0.8 µM) was 0.334; with SGI-1776 + Pictilisib (first compound 2.53 µM), 0.343; with SGI-1776 + Pictilisib (first compound 8 µM), 0.324; in assay [1] (first compound 0.02 µM), 0.65; in assay [1] (first compound 0.06325 µM) it was 0.719; in assay [1] (first compound 0.2 µM) it was 0.589. The relative viability in assay [1] (first compound 0.6325 µM) turned out to be 0.64; in assay [1] (first compound 2 µM), 0.545; with SGI-1776 + Foretinib (first compound 0.08 µM), 0.869; with SGI-1776 + Foretinib (first compound 0.8 µM), 0.83; in the assay with SGI-1776 + Foretinib (first compound 2.53 µM) it was 0.926; in the assay with SGI-1776 + Foretinib (first compound 8 µM) it was 0.713.
For the cell line NCI-H1975, the relative viability in the assay with Entinostat + Alpelisib (first compound 0.02 µM) worked out at 0.454; in the assay with Entinostat + Alpelisib (first compound 0.06325 µM), 0.38; with Entinostat + Alpelisib (first compound 0.2 µM), 0.38; with Entinostat + Alpelisib (first compound 0.6325 µM), 0.247; in the assay with Entinostat + Alpelisib (first compound 2 µM), 0.204; with SGI-1776 + Pictilisib (first compound 0.08 µM), 0.382. Further, the relative viability with SGI-1776 + Pictilisib (first compound 0.8 µM) is 0.311; with SGI-1776 + Pictilisib (first compound 2.53 µM), 0.246; with SGI-1776 + Pictilisib (first compound 8 µM), 0.203; in assay [1] (first compound 0.02 µM), 0.327; in assay [1] (first compound 0.06325 µM), 0.296; in assay [1] (first compound 0.2 µM), 0.293. Moreover, the relative viability came to 0.292 in assay [1] (first compound 0.6325 µM); 0.23 in assay [1] (first compound 2 µM); 0.961 with SGI-1776 + Foretinib (first compound 0.08 µM); 0.943 with SGI-1776 + Foretinib (first compound 0.8 µM); 0.827 in the assay with SGI-1776 + Foretinib (first compound 2.53 µM); 0.692 with SGI-1776 + Foretinib (first compound 8 µM).
For NCI-H1993, the relative viability with Entinostat + Alpelisib (first compound 0.02 µM) came to 0.674; with Entinostat + Alpelisib (first compound 0.06325 µM), 0.704; with Entinostat + Alpelisib (first compound 0.2 µM), 0.733; in the assay with Entinostat + Alpelisib (first compound 0.6325 µM) it was 0.695; with Entinostat + Alpelisib (first compound 2 µM), 0.728; with SGI-1776 + Pictilisib (first compound 0.08 µM), 0.711. The relative viability came to 0.665 in the assay with SGI-1776 + Pictilisib (first compound 0.8 µM); 0.839 with SGI-1776 + Pictilisib (first compound 2.53 µM); 0.703 with SGI-1776 + Pictilisib (first compound 8 µM); 0.619 in assay [1] (first compound 0.02 µM); 0.666 in assay [1] (first compound 0.06325 µM); 0.607 in assay [1] (first compound 0.2 µM). For the same cell line, the relative viability in assay [1] (first compound 0.6325 µM) came out at 0.583; in assay [1] (first compound 2 µM), 0.475; with SGI-1776 + Foretinib (first compound 0.08 µM), 0.819; with SGI-1776 + Foretinib (first compound 0.8 µM) it was 0.761; with SGI-1776 + Foretinib (first compound 2.53 µM) it was 0.688; with SGI-1776 + Foretinib (first compound 8 µM) it was 0.695.
For the cell line NCI-H2009, the relative viability in the assay with Entinostat + Alpelisib (first compound 0.02 µM) came out at 1.21; in the assay with Entinostat + Alpelisib (first compound 0.06325 µM) it was 1.13; with Entinostat + Alpelisib (first compound 0.2 µM) it was 1.15; with Entinostat + Alpelisib (first compound 0.6325 µM), 0.884; in the assay with Entinostat + Alpelisib (first compound 2 µM) it was 0.721; with SGI-1776 + Pictilisib (first compound 0.08 µM) it was 0.764. In addition, the relative viability was 0.93 in the assay with SGI-1776 + Pictilisib (first compound 0.8 µM); 0.682 with SGI-1776 + Pictilisib (first compound 2.53 µM); 0.474 in the assay with SGI-1776 + Pictilisib (first compound 8 µM); 1.07 in assay [1] (first compound 0.02 µM); 1.05 in assay [1] (first compound 0.06325 µM); 1.07 in assay [1] (first compound 0.2 µM). Also, the relative viability was found to be 1.01 in assay [1] (first compound 0.6325 µM); 0.849 in assay [1] (first compound 2 µM); 1.19 with SGI-1776 + Foretinib (first compound 0.08 µM); 1.27 with SGI-1776 + Foretinib (first compound 0.8 µM); 1.24 with SGI-1776 + Foretinib (first compound 2.53 µM); 0.931 with SGI-1776 + Foretinib (first compound 8 µM).
